Patent publication US12553055B2, “Auxin-inducible degron system kit and use thereof” (Inter-University Research Institute Corporation Research …, priority 2019, dated 2026)

Tests used:
[1] = molecular target: T1, OsTIR1(F74G)/mAID-EGFP-NLS expressing cell (Oryza sativa subsp. japonica, UniProt Q7XVM8, F74G); experiment: FACS analysis of mAID-EGFP-NLS reporter degradation in OsTIR1(F74G) expressing HCT116 cell; assay type: cell-based, human
T1 construct: expressed in transfected cells; host or cells: HCT116 (human colon adenocarcinoma-derived cell)
Protocol: (§1) An HCT116 cell (human colon adenocarcinoma-derived cell) having DNA in which an OsTIR1(WT) or OsTIR1(F74G) and an mAID-EGFP (green fluorescent protein)-NLS (nuclear localization signal) were encoded through a P2A sequence inserted onto a chromosome by a transposon (hereinafter, referred to as “OsTIR1(WT)/mAID-EGFP-NLS expressing cell” or “OsTIR1(F74G)/mAID-EGFP-NLS expressing cell”) was prepared (refer to FIG. 1).
(§2) The auxin analog (concentration in culture medium: 0, 200 μM) was added to the OsTIR1(F74G)/mAID-EGFP-NLS expressing cell and cultured for 24 hours. In addition, as a control, a cell containing an auxin added to the OsTIR1(WT)/mAID-EGFP-NLS expressing cell was also prepared.
(§3) After 24 hours from the addition of the auxin analog, the cells were collected, and FACS analysis was performed.
(§4) Furthermore, the same experiment was performed by adding 100 μM of an auxin to the OsTIR1(WT)/mAID-EGFP-NLS expressing cell, adding 1 μM of 5-Ph-IAA to the OsTIR1(F74G)/mAID-EGFP-NLS expressing cell, collecting the cells after four hours, and performing FACS analysis.
(§5) In order to compare OsTIR1(WT) and OsTIR1(F74G) in more detail, the degradation of the mAID-EGFP-NLS reporter was induced using IAA (auxin) and 5-Ph-IAA in different doses, respectively (refer to FIG. 10(A)). […] DC 50 values (concentrations for 50% degradation) were 300±30 nM and 0.45±0.01 nM in OsTIR1(WT) and OsTIR1(F74G), respectively, and it was confirmed that the system in which 5-Ph-IAA was used functioned at an approximately 670-times lower concentration compared with conventional auxin-inducible degron systems.
In order to investigate dynamics over time attributed to the removal of a target protein, samples after a lapse of time were taken, and the expression levels of the reporter were observed (refer to FIG. 10(B)). […]

[2] = molecular target: T2, OsTIR1(F74G)/DHC1-mAID-Clover expressing cell (Oryza sativa subsp. japonica, UniProt Q7XVM8, F74G); experiment: Degradation induction test of DHC1 (microscopy, Western blotting); assay type: cell-based, human
T2 construct: expressed in transfected cells; host or cells: HCT116; OsTIR1(F74G) gene at the AAVS1 locus; endogenous DHC1 tagged by CRISPR/Cas9 homologous recombination
Protocol: A plasmid vector having mAID, clover and a neomycin resistance gene and having a homologous sequence with respect to a DHC1 gene so as to sandwich mAID and the neomycin resistance gene was introduced into the OsTIR1(WT)-expressing HCT116 cell or OsTIR1(F74G)-expressing HCT116 cell using a CRISPR/Cas9 system, and homologous recombination with the endogenous DHC1 gene was performed. Next, after selection by G418, the formed colony was dyed using crystal violet. “DHC1” is the abbreviation for dynein heavy chain 1.
A degradation induction test of DHC1 was performed using the HCT116 cell expressing OsTIR1(F74G) on which homologous recombination had been performed in the above-described section 2 (hereinafter, referred to as “OsTIR1(F74G)/DHC1-mAID-Clover expressing cell”).
The compound indicated by the formula (I-2) (also referred to as 5-Ph-IAA) was added to the OsTIR1(F74G)/DHC1-mAID-Clover expressing cell, and the appearance of the cell after 24 hours was observed (FIG. 4(A)).
Furthermore, the degradation of DHC1 was confirmed by Western blotting (FIG. 4(B)).
A CRISPR plasmid for adding a degron tag and two donors each having a neomycin-resistant marker or a hygromycin-resistant marker were transfected into a parent cell line constitutively expressing OsTIR1(WT or F74G) (refer to FIG. 14). In an OsTIR1(F74G) expressing cell, a colony was formed in the presence of G418 and hygromycin, and tags were added to DHC1 genes at both alleles (refer to FIG. 15(A)). In a cell expressing OsTIR1(WT), no colony was formed. […] This coincides with the fact that DHC1 is essential for the formation of a spindle that is formed during mitosis.

mAID-EGFP-POLD1 = molecular target: T3, mAID-EGFP-POLD1 (Oryza sativa subsp. japonica, UniProt Q7XVM8, F74G); experiment: Western blotting of mAID-EGFP-POLD1 degradation in HeLa cell (transposon vector + CRISPR-KO); assay type: cell-based, human; details: anti-POLD1 antibody, clones #1 to #3
T3 construct: P2A linker (self-cleaving; remnant); expressed in transfected cells; host or cells: HeLa; transposon vector plus CRISPR-KO vector
Text: (§6) In this degradation system, (1) a transposon vector in which an OsTIR1(F74G) gene and an mAID-target gene are connected by a P2A linker gene and (2) a CRISPR-KO vector for knocking out an endogenous target gene containing gRNA and a Cas9 gene are contained.
(§7) In this degradation system, the OsTIR1(F74G) gene and the mAID-target gene in a genome are integrated by the transposon vector, and an endogenous target gene is knocked out by the CRISPR-KO vector.
(§8) The transposon vector in which an OsTIR1(F74G) gene and an mAID-EGFP-CENPH or mAID-EGFP-POLD1 target gene were connected by a P2A linker gene was constructed, and this vector was introduced into a HeLa cell together with the CRISPR-KO vector targeting an endogenous CENPH or POLD1 gene. 5-Ph-IAA was added to such a cell, and the degradation of the target protein was confirmed by Western blotting (FIG. 6).

[3] = molecular target: T4, SMC2, CTCF and POLR2A to which mAID is added (Oryza sativa subsp. japonica, UniProt Q7XVM8, F74G); experiment: Degradation of mAID fused SMC2, CTCF and POLR2A in HCT116 constitutively expressing OsTIR1(F74G); assay type: cell-based, human; details: 1 μM
T4 construct: expressed in transfected cells; host or cells: HCT116 constitutively expressing OsTIR1(F74G); endogenous genes tagged
Text: Regarding aSMC2 condensin complex, a CTCF insulator protein or the maximum subunit of RNA polymerase 2 (POLR2A) in which it was difficult to produce an AID cell line using an HCT116 cell constantly expressing OsTIR1(WT), whether or not a cell line can be generated with a cell constitutively expressing OsTIR1(F74G) was examined.

[4] = molecular target: T5, OsTIR1(F74A)/mAID-EGFP-NLS expressing cell (Oryza sativa subsp. japonica, UniProt Q7XVM8, F74A); experiment: FACS analysis of mAID-EGFP-NLS reporter degradation in OsTIR1(F74A) expressing cell clones; assay type: cell-based, human
T5 construct: expressed in transfected cells
Protocol: Furthermore, the same experiment was also performed on three clones using an OsTIR1(F74A)/mAID-EGFP-NLS expressing cell.

mAID-EGFP-CENPH = molecular target: T6, mAID-EGFP-CENPH (Oryza sativa subsp. japonica, UniProt Q7XVM8, F74G); experiment: Western blotting of mAID-EGFP-CENPH degradation in HeLa cell (transposon vector + CRISPR-KO); assay type: cell-based, human; details: anti-CENPH antibody
T6 construct: P2A linker (self-cleaving; remnant); expressed in transfected cells; host or cells: HeLa; transposon vector plus CRISPR-KO vector
Text: as §6, §7, §8

[5] = test system: yeast strains with mAID tag on MCM10, SLD3 or CDC45; experiment: Growth of mAID-tagged yeast strains expressing OsTIR1(WT, F74G or F74A) on plates; assay type: cell-based
Text: In order to confirm that the AID2 system functions even in yeasts, OsTIR1(WT, F74G or F74A) was introduced into a URA3 gene locus under the control of a GAL1-10 promoter (refer to FIG. 12(A)). After that, an mAID tag was attached to a gene that encodes MCM10, SLD3 or CDC45, which is an essential replication initiator.

[6] = molecular target: T7, RAD21-mAID-Clover (RAD21-mAC) cell expressing OsTIR1(F74G) (Oryza sativa subsp. japonica, UniProt Q7XVM8, F74G); experiment: RAD21-mAC degradation in HCT116 cell expressing OsTIR1(F74G); assay type: cell-based, human
T7 construct: expressed in transfected cells; host or cells: human HCT116 constantly expressing OsTIR1(F74G); RAD21 tagged by genome editing
Protocol: (§9) A human HCT116 cell constantly expressing OsTIR1(F74G) was used as a material, an RAD21-mAID-Clover (RAD21-mAC) cell was generated by genome editing, and an effect of the addition of 5-Ph-IAA was confirmed. As shown in FIGS. 13(A) and (B), the expression level of RAD21-mAC was […] in a cell expressing OsTIR1(F74G) than in a cell expressing OsTIR1(WT) at 0 minutes before addition, and basal degradation was shown in conventional AID systems.

HCT116 cell = experiment: Influence of 5-Ph-IAA treatment on HCT116 cell (cell cycle, colony formation); assay type: cell-based, human; details: 1 μM
Protocol: As shown in FIG. 9(A) in which the influence of the treatment with 1 μM of 5-Ph-IAA on the HCT116 cell was investigated, no influence was shown on the cell cycle. As shown in FIG. 9(B), no change in the colony formation efficiency was shown. It was confirmed that 5-Ph-IAA is an effective ligand and has no toxicity at 1 μM.

[7] = molecular target: T8, OsTIR1(WT)/mAID-EGFP-NLS expressing cell (Oryza sativa subsp. japonica, UniProt Q7XVM8); experiment: FACS analysis of mAID-EGFP-NLS reporter degradation in OsTIR1(WT) expressing HCT116 cell (conventional system); assay type: cell-based, human
T8 construct: expressed in transfected cells; host or cells: HCT116 (human colon adenocarcinoma-derived cell)
Protocol: as §1, §2, §3, §4, §5
In order to investigate dynamics over time attributed to the removal of a target protein, samples after a lapse of time were taken, and the expression levels of the reporter were observed (refer to FIG. 10(B)).

[8] = molecular target: T9, RAD21-mAID-Clover (RAD21-mAC) cell expressing OsTIR1(WT) (Oryza sativa subsp. japonica, UniProt Q7XVM8); experiment: RAD21-mAC degradation in HCT116 cell expressing OsTIR1(WT); assay type: cell-based, human; details: after the addition of a ligand
T9 construct: expressed in transfected cells; host or cells: RAD21-mAC cell expressing OsTIR1(WT) (HCT116 implied)
T9 sequence (Q7XVM8 1-575): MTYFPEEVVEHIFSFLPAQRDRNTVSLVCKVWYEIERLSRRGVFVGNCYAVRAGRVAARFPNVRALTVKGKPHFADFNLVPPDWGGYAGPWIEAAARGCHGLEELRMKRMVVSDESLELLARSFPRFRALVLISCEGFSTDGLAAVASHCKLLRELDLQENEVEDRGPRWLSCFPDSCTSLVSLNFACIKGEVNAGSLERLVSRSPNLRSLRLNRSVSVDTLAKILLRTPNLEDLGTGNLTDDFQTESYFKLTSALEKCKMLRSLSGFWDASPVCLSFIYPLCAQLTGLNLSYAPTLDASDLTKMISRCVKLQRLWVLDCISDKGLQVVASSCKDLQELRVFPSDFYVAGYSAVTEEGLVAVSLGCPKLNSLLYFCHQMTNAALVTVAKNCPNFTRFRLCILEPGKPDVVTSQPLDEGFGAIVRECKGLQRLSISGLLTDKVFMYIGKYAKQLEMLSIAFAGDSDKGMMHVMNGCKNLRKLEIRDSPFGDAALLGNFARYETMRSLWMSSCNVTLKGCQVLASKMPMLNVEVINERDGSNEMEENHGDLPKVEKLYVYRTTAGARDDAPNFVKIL
Protocol: as §9

## O=C(O)Cc1c[nH]c2ccc(-c3ccccc3)cc12 [5-Ph-IAA, 5-phenyl-indole 3-acetic acid]
[1]; 1 nM and 10 nM, compared with the other auxin analogs
  effect of inducing the degradation of the mAID-EGFP-NLS reporter: stronger effect
[1]; 1 μM, four hours
  degradation of mAID-EGFP-NLS reporter: efficiently degraded
[1]; AID2 system, OsTIR1(F74G)
  half-life of reporter degradation: 62.3 ± 2.0 min
[1]; DC50 OsTIR1(WT)/IAA versus OsTIR1(F74G)/5-Ph-IAA
  times lower concentration compared with conventional auxin-inducible degron systems: approximately 670 times
[1]; OsTIR1(F74G) clones compared with OsTIR1(F74A) clone
  degradation of mAID-EGFP-NLS reporter in clones: sharper degradation
[1]; OsTIR1(F74G), after degradation induction
  recovery of reporter expression after exchange to culture medium containing no 5-Ph-IAA: fully recovered after three hours
[1]; read-out: DC 50 values (concentrations for 50% degradation), mAID-EGFP-NLS reporter, OsTIR1(F74G), HCT116
  DC50: 0.45 ± 0.01 nM
[2]; 1 μM
  cell cycle phenotype after DHC1-mAC degradation: arrested in mitosis
  mitotic spindle formation after DHC1-mAC degradation: strong defect in mitotic spindle formation
[2]; 1 μM, clone with tags at both alleles
  degradation of DHC1-mAC: more efficiently degraded
[2]; after 24 hours
  cell phenotype after DHC1 degradation: accumulation of cells in the mitotic period was observed
  degradation of DHC1-mAID-Clover fused protein (microscopy): degraded a DHC1-mAID-Clover fused protein
[2]; clones #1 to #3
  degradation of DHC1 by Western blotting: degradation of DHC1 and mAID was confirmed
mAID-EGFP-POLD1
  degradation of mAID-EGFP-POLD1 by Western blotting: degradation of mAID-EGFP-POLD1 was confirmed
[3]
  degradation of mAID fused targets (SMC2, CTCF, POLR2A): rapidly degraded
[4]
  degradation of mAID-EGFP-NLS reporter in clones: degradation was induced
mAID-EGFP-CENPH
  degradation of mAID-EGFP-CENPH by Western blotting: degradation of mAID-EGFP-CENPH was confirmed
[5]; plates containing 5 μM, OsTIR1(F74G or F74A)
  growth of mAID-introduced yeast strains: strong growth inhibition
[6]
  cell cycle of RAD21-mAC degraded cells: arrested in the G2/M phase
  sister chromatid cohesion of RAD21-mAC degraded cell: profound defect
[6]; after the addition of a ligand
  T1/2 of RAD21-mAC: 11.7 min
HCT116 cell
  colony formation efficiency: no change
  influence on the cell cycle: no influence
  toxicity: no toxicity

## O=C(O)Cc1c[nH]c2ccccc12 [IAA]
[7]; 100 μM, four hours
  degradation of mAID-EGFP-NLS reporter: the reporter was degraded
[7]; conventional system, OsTIR1(WT)
  half-life of reporter degradation: 147.1 ± 12.5 min
[7]; mAID-EGFP-NLS reporter, OsTIR1(WT), HCT116, read-out: DC 50 values (concentrations for 50% degradation)
  DC50: 300 ± 30 nM
[8]
  T1/2 of RAD21-mAC: 26.5 min
[5]; 500 μM, OsTIR1(WT and F74A)
  growth of mAID-introduced yeast strains: growth suppression
